Entries after “also recorded” stand apart in the source; their conditions may differ.
Tests used:
[1] = test system: White New Zealand male rabbits; test: In vivo β-adrenergic blockade, isoproterenol challenge (Protocol 1); parameters: species or system rabbit; dose or concentration left out as unconfirmed; settings: during isoproterenol challenge, intravenous, FIG. 10
[2] = target: T1, human recombinant beta-2 receptors (Homo sapiens, UniProt P07550); test: β2-receptor radioligand binding, [125I] iodocyanopindolol, CHO-WT21 cells
T1 construct: expressed in transfected cells; host or cells: CHO-WT21 cells
T1 sequence (P07550 whole entry): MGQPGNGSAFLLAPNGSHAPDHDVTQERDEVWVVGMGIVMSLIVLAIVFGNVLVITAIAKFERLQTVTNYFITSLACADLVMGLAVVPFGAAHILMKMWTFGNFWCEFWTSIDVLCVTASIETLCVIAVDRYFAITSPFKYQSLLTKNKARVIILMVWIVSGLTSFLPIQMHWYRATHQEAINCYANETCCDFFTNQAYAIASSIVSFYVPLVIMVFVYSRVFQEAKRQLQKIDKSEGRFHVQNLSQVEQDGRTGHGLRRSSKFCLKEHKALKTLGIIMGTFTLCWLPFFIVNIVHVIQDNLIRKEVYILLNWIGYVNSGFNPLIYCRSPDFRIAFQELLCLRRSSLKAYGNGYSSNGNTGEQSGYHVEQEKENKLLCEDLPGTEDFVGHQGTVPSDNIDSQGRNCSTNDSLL
Protocol: (§1) Non-selective β-adrenergic and β1-adrenergic radioligand binding assays were performed using rat cortical membranes; β2-adrenergic receptor assays were performed using membranes isolated from CHO cells expressing human, recombinant b2-adrenergic receptor; non-selective α1-adrenergic receptor assays were performed using rat forebrain membranes; and PDE3 binding assays were performed on human platelets. Values in percent illustrate percent inhibition at 1000 nM concentration.

[3] = test system: White New Zealand male rabbits; test: In vivo hemodynamic effects of compounds administered alone (Protocol 2); parameters: species or system rabbit
Protocol: (§2) Studies were performed on White New Zealand male rabbits (2-3 kg weight). Animals were initially anesthetized with ketamine (50 mg/kg; IM) and xylazine (6 mg/kg, IM). Subsequently, animals were intubated (via tracheotomy; 3 mm tube) and ventilated with 2% isoflurane (mixed in 95% O2+5% CO2). Each rabbit was instrumented for LV pressure (3F Millar catheter) through right carotid artery, arterial pressure (3F catheter, Cook Instruments) through left femoral artery, which was connected to a fluid-filled pressure transducer (BD Instruments), and ECG. Both pressure transducers were zeroed against atmospheric pressure, and calibrated before each study using an analog manometer. Upon completion of instrumentation, isoflurane was reduced to 1.25%, and the animal was covered for maintenance of body core temperature. Arterial and LV blood pressures (LVP) and the ECG signals were simultaneously digitally recorded on a PC. The recording system (Gould Instruments) and the corresponding software (Ponema, Gould Instruments) facilitated detailed calculation of various parameters directly from all signals and record on a separate file with a 1 sec resolution. Upon completion of the study protocol, rabbits were euthenized by isoflurane overdose (5% for at least 1 minute) and cardiac arrest through IV infusion of 5 ml 3 molar potassium chloride.
(§3) Once the physiological variables were stable, effects of each drug on hemodynamics and ECG were determined based on two different protocols: 1) infusion of a compound of the present invention to determine the effects of the compound itself mainly on contractility, and other hemodynamic indices; and 2) infusion of a compound of the present invention while the system was challenged with 0.5 ug/kg isoproterenol to determine the beta-adrenergic antagonism properties of each tested compound.
(§4) White New Zealand male rabbits (2-3 kg) were anesthetized and ventilated (95% O2+5% CO2) with 1.25% isoflurane. Each animal was instrumented for LV pressure (Millar, through left carotid artery), arterial pressure (left femoral artery), infusion (jugular vein), and electrocardiogram. The animals were administered intravenously based on one of these protocols:
Protocol 2: PDE3 inhibition (effects of compounds when administered alone).

[4] = target: beta-receptors from rat cortical membranes; test: Non-specific β-receptor radioligand binding, [3H]DHA; settings: read-out: Non-selective β-adrenergic IC50
Protocol: as §1

[5] = test system: White New Zealand male rabbits; test: In vivo β-adrenergic blockade, isoproterenol challenge (Protocol 1); parameters: species or system rabbit
Protocol: as §2, §3, §4
Protocol 1: β-adrenergic blockade (isoproterenol challenge).

[6] = Compound 25 0.3 mg/kg, carvedilol 0.1 mg/kg, Protocol 1, FIG. 13

inhibition at 0.1 µM ([2]; at 100 nM): > 25%
IC50 ([2]; membranes from CHO cells expressing human recombinant β2-adrenergic receptor): 1 nM
IC50 [4]: 3 nM
SMILES: O=C1CCC(c2ccc(OCCNCC(O)COc3cccc4[nH]c5ccccc5c34)c(Cl)c2)=NN1 (racemic) [Compound 25, 6-(4-{2-[3-(9H-Carbazol-4-yloxy)-2-hydroxy-propylamino]-ethoxy}-3-chloro-phenyl)-4,5-dihydro-2H-pyridazin-3-one]
β-adrenergic antagonism on left ventricular contractility [1]: potent dose-dependent β-adrenergic antagonism
heart rate when administered alone ([3]; Protocol 2, with and without atropine and bilateral vagotomy (FIG. 16)): minimal effect on heart rate; also recorded: did not increase heart rate
left ventricular contractility when administered alone ([3]; protocol 2, relative to control, FIGS. 2, 12): increased or maintained contractility in a dose-dependent manner
contractility (LV+dP/dtmax) at ED50 [5, 6]: increased contractility
mean arterial pressure (MAP) at ED50 [5, 6]: more potent decrease in mean arterial pressure (MAP) than carvedilol
ED50 ([5]; Oryctolagus cuniculus, isoproterenol challenge (0.5 μg/kg), intravenous, read-out: ED50, dose that diminished isoproterenol-dependent increase in HR by 50%): 0.3 mg/kg
relaxation properties (Tau) at ED50 ([5]; compared to control, Protocol 1, FIG. 13): did not change the relaxation properties (Tau)
β-adrenergic antagonism on heart rate (HR) ([5]; during isoproterenol challenge (0.5 μg/kg), FIG. 11): dose-dependent β-adrenergic antagonism
